From publication PMC6222558, “Synthesis and Evolution of Berberine Derivatives as a New Class of Antiviral Agents against Enterovirus 71 through the MEK/ERK Pathway and Autophagy” (Molecules : A Journal of Synthetic Chemistry and Natural …, 2018)
pIC50: −log10 of the molar value. Where a name gives a salt, the structure may show the parent alone.

Tests used:
[1] = system: EV71 JS-52 strain (genotype C4); assay: CPE inhibition assay for anti-EV71, JS-52 strain; format: cell-based, enterovirus 71 (EV71); conditions: Enterovirus A, EV71; Vero cells; CPE; calculated on the organic part; n = 3; read-out: JS-52 Strain IC50
Protocol: (§1) Thus, all newly synthesized BBR analogues were screened for their anti-EV71 potencies in African green monkey kidney (Vero) cells taking BBR as the positive control. EV71 strains used in the present study include different genotype strains, such as H strain (VR-1432, genotype C2), BrCr strain (VR-1775, genotype A), and JS-52 and SHZH98 (genotype C4). The potency against EV71 strains above mentioned of each tested compound was evaluated by the combination of its IC50 and selectivity index (SI) value as the important therapeutic indication.
(§2) Vero cells were purchased from the American Type Culture Collection (ATCC, […], MD, USA), and were cultured in Minimum Essential Medium (MEM) supplemented with 10% fetal bovine serum (FBS) (GIBCO, Grand Island, NY, USA) and antibiotics (100 U/mL penicillin and […] streptomycin) at 37 °C in a 5% CO2 incubator. EV71 strain SHZH98 isolated from the throat swab sample of an HFMD case occurring in 1998 in China was kindly provided by Dr. Qi Jin (Institute of Pathogen Biology, Chinese Academy of Medical Science and Peking Union Medical School, Beijing, China), and JS-52 strain was a kind gift from Dr. Xiangzhong Ye (Beijing Wantai Biological Pharmacy Enterprise Co., Ltd., Beijing, China). The EV71 BrCr and H strains were purchased from the ATCC. All of EV71 strains were passaged in Vero cells.
(§3) The anti-EV71 activities of all tested compounds were detected by the virus-induced CPE assay. Briefly, cells (3 × 10^4 cells/well) were plated into 96-well culture plates and incubated for 16 h. Then, remove the medium and infected cells with EV71 of 100 × TCID50 (50% tissue culture infective doses) in serum-free medium for 1 h at 37 °C. After that, the unbound viruses were removed and various concentrations of tested compounds were supplemented for incubation of another 72 h. […] TC50 defined as the concentration that leads to the 50% of CPE which determined by the same method in 72 h. In addition, the cells were stained the cells were colored with 0.5% crystal violet in 20% ethanol for 15 min at room temperature and the cells were imaged after rinsed with PBS.

Vero cells = assay: Cytotoxicity assay (CCK) in Vero cells; format: cell-based, African green monkey; conditions: for TC50 (median toxic concentration): African green monkey, 48 h
Protocol: as §2
Cytotoxicity of all target compounds in Vero cells was analyzed by CCK (TransGen Biotech, Beijing, China) assay. In brief, cells in exponential phase (3 × 10^4 cells/well) were seeded into 96-well culture plates and incubated overnight. Then, the medium was removed and different concentrations of all target compounds were applied in duple. After 48 h incubation, the cytotoxicity of all target compounds was determined by CCK assay. The signals were read at 450 nm on Enspire (Perkin Elmer, Waltham, MA, USA). The TC50 was defined as the concentration that inhibits 50% cellular growth in comparison with the controls. It is calculated by the Reed and Muench method.

[2] = system: EV71 BrCr strain (VR-1775, genotype A); assay: CPE inhibition assay for anti-EV71, BrCr strain; format: cell-based, enterovirus 71 (EV71); conditions: Enterovirus A, EV71; Vero cells; CPE; calculated on the organic part; n = 3; read-out: BrCr Strain IC50
Protocol: as §1, §2, §3

[3] = system: EV71 SHZH98 strain (genotype C4); assay: CPE inhibition assay for anti-EV71, SHZH98 strain; format: cell-based, enterovirus 71 (EV71); conditions: Enterovirus A, EV71; Vero cells; CPE; calculated on the organic part; n = 3; read-out: SHZH98 Strain IC50
Protocol: as §1, §2, §3

[4] = system: EV71 H strain (VR-1432, genotype C2); assay: CPE inhibition assay for anti-EV71, H strain; format: cell-based, enterovirus 71 (EV71); conditions: Vero cells; for pIC50: Enterovirus A, EV71, CPE, calculated on the organic part, n = 3, read-out: H Strain IC50; for anti-EV71 activity against H strain, in words: compared with BBR
Protocol: as §1, §2, §3

Compound: COc1ccc2cc3[n+](cc2c1OC(=O)OCc1ccccc1)CCc1cc2c(cc1-3)OCO2 (as salt: chloride) [2h, 2,3-Methylenedioxy-9-benzyloxyformyloxy-10-methoxy protoberberine chloride]
- melting point: 195 to 197 °C

Compound: COc1cc2c(cc1OC)-c1cc3ccc(OC)c(OCC(=O)C(C)(C)C)c3c[n+]1CC2 (as salt: chloride) [4b, 2,3,10-Trimethoxy-9-pivalylmethylenoxy protoberberine chloride]
- melting point: 227 to 229 °C

Compound: COc1cccc(C(=O)COc2c(OC)ccc3cc4[n+](cc23)CCc2cc3c(cc2-4)OCO3)c1 (as salt: chloride) [2f, 2,3-Methylenedioxy-9-m-methoxyphenylformylmethylenoxy-10-methoxy protoberberine chloride]
- melting point: 214 to 216 °C

Compound: COc1cc2c(cc1OCC(=O)OCc1ccccc1)CC[n+]1cc3c(OC)c(OC)ccc3cc1-2 (as salt: chloride) [5c, 2,9,10-Trimethoxy-3-benzyloxyformylmethylenoxy protoberberine chloride]
- melting point: 217 to 219 °C

Compound: CCOC(=O)COc1c(OC)ccc2cc3[n+](cc12)CCc1cc(OC)c(OC)cc1-3 (as salt: chloride) [4a, 2,3,10-Trimethoxy-9-ethyloxyformylmethylenoxy protoberberine chloride]
- melting point: 204 to 206 °C

Compound: COc1ccc2cc3[n+](cc2c1OCC(=O)c1ccc(C(F)(F)F)cc1)CCc1cc2c(cc1-3)OCO2 (as salt: chloride) [2g, 2,3-Methylenedioxy-9-p-trifloromethylphenylformylmethylenoxy-10-methoxy protoberberine chloride]
- melting point: 238 to 240 °C

Compound: CCOC(=O)COc1cc2c(cc1OC)-c1cc3ccc(OC)c(OC)c3c[n+]1CC2 (as salt: chloride) [5a, 2,9,10-Trimethoxy-3-ethyloxyformylmethylenoxy protoberberine chloride]
- melting point: 234 to 236 °C

Compound: COc1cc2c(cc1OC(=O)OCc1ccccc1)CC[n+]1cc3c(OC)c(OC)ccc3cc1-2 (as salt: chloride) [5g, 2,9,10-Trimethoxy-3-benzyloxyformyloxy protoberberine chloride]
- melting point: 140 to 142 °C

Compound: COc1cc2c(cc1OCC(=O)c1ccc(C)cc1)CC[n+]1cc3c(OC)c(OC)ccc3cc1-2 (as salt: chloride) [5d, 2,9,10-Trimethoxy-3-p-methylphenylformylmethylenoxy protoberberine chloride]
- melting point: 218 to 220 °C

Compound: COc1cccc(C(=O)COc2c(OC)ccc3cc4[n+](cc23)CCc2cc(OC)c(OC)cc2-4)c1 (as salt: chloride) [4e, 2,3,10-Trimethoxy-9-m-methoxyphenylformylmethylenoxy protoberberine chloride]
- melting point: 200 to 202 °C

Compound: CCOC(=O)Oc1c(OC)ccc2cc3[n+](cc12)CCc1cc2c(cc1-3)OCO2 (as salt: chloride) [2i, 2,3-Methylenedioxy-9-ethyloxyformyloxy-10-methoxy protoberberine chloride]
- melting point: 218 to 220 °C

Compound: COc1cccc(C(=O)COc2cc3c(cc2OC)-c2cc4ccc(OC)c(OC)c4c[n+]2CC3)c1 (as salt: chloride) [5e, 2,9,10-Trimethoxy-3-m-methoxyphenylformylmethylenoxy protoberberine chloride]
- melting point: 218 to 220 °C

Compound: COc1cc2c(cc1OC)-c1cc3ccc(OC)c(OCC(=O)OCc4ccccc4)c3c[n+]1CC2 (as salt: chloride) [4c, 2,3,10-Trimethoxy-9-benzyloxyformylmethylenoxy protoberberine chloride]
- melting point: 196 to 198 °C

Compound: COc1cc2c(cc1OC)-c1cc3ccc(OC)c(OC(=O)OCc4ccccc4)c3c[n+]1CC2 (as salt: chloride) [4g, 2,3,10-Trimethoxy-9-benzyloxyformyloxy protoberberine chloride]
- melting point: 98 to 100 °C

Compound: COc1ccc2cc3[n+](cc2c1OCC(=O)OCC(C)C)CCc1cc2c(cc1-3)OCO2 (as salt: chloride) [2b, 2,3-Methylenedioxy-9-isobutyloxyformylmethylenoxy-10-methoxy protoberberine chloride]
- melting point: 232 to 234 °C

Compound: COc1cc2c(cc1OC)-c1cc3ccc(OC)c(OCC(=O)c4ccc(C)cc4)c3c[n+]1CC2 (as salt: chloride) [4d, 2,3,10-Trimethoxy-9-p-tolylformylmethylenoxy protoberberine chloride]
- melting point: 228 to 230 °C

Compound: COc1ccc2cc3[n+](cc2c1OCC(=O)C(C)(C)C)CCc1cc2c(cc1-3)OCO2 (as salt: chloride) [2c, 2,3-Methylenedioxy-9-pivalylmethylenoxy-10-methoxy protoberberine chloride]
- melting point: 242 to 244 °C

Compound: COc1ccc2cc3[n+](cc2c1O)CCc1cc2c(cc1-3)OCO2 [compound 1]
- pIC50 [1]: 4.55
- TC50 (median toxic concentration) (Vero cells): 85.5 µM
- pIC50 [2]: 4.45
- pIC50 [3]: 4.49
- pIC50 [4]: 4.43
- anti-EV71 activity against H strain, in words [4]: decreased activity

Compound: COc1cc2c(cc1OC)-c1cc3ccc(OC)c(OC(=O)OCc4ccccc4)c3c[n+]1CC2 [4g, 2,3,10-Trimethoxy-9-benzyloxyformyloxy protoberberine chloride]
- pIC50 [1]: 3.89
- TC50 (median toxic concentration) (Vero cells): 351 µM
- pIC50 [2]: < 3.84
- pIC50 [3]: < 3.84
- pIC50 [4]: < 3.84

Compound: CCOC(=O)Oc1c(OC)ccc2cc3[n+](cc12)CCc1cc2c(cc1-3)OCO2 [2i, 2,3-Methylenedioxy-9-ethyloxyformyloxy-10-methoxy protoberberine chloride]
- pIC50 [1]: 4.36
- TC50 (median toxic concentration) (Vero cells): 167 µM
- pIC50 [2]: 4.47
- pIC50 [3]: 4.34
- pIC50 [4]: 4.51
- anti-EV71 activity against H strain, in words [4]: obvious decreased activity

Compound: COc1cccc(C(=O)COc2cc3c(cc2OC)-c2cc4ccc(OC)c(OC)c4c[n+]2CC3)c1 [5e, 2,9,10-Trimethoxy-3-m-methoxyphenylformylmethylenoxy protoberberine chloride]
- pIC50 [1]: 5.06
- cytotoxicity, in words (Vero cells): high cytotoxicity
- TC50 (median toxic concentration) (Vero cells): 27.6 µM
- pIC50 [2]: 5.04
- pIC50 [3]: 5.04
- pIC50 [4]: 4.98
- anti-EV71 activity against H strain, in words [4]: ideal activities compared with BBR

Compound: COc1cc2c(cc1OC)-c1cc3ccc(OC)c(OCC(=O)C(C)(C)C)c3c[n+]1CC2 [4b, 2,3,10-Trimethoxy-9-pivalylmethylenoxy protoberberine chloride]
- pIC50 [1]: 3.96
- TC50 (median toxic concentration) (Vero cells): 333 µM
- pIC50 [2]: 3.84
- pIC50 [3]: < 3.84
- pIC50 [4]: < 3.84

Compound: COc1ccc2cc3[n+](cc2c1OCC(=O)c1ccc(C)cc1)CCc1cc2c(cc1-3)OCO2 (as salt: chloride) [2e, 2,3-Methylenedioxy-9-p-tolylformylmethylenoxy-10-methoxy protoberberine chloride]
- melting point: 219 to 221 °C

Compound: COc1cc2c(cc1OCC(=O)c1ccc(C(F)(F)F)cc1)CC[n+]1cc3c(OC)c(OC)ccc3cc1-2 (as salt: chloride) [5f, 2,9,10-Trimethoxy-3-p-trifloromethylphenylformylmethylenoxy protober berine chloride]
- melting point: 213 to 215 °C

Compound: CCOC(=O)COc1c(OC)ccc2cc3[n+](cc12)CCc1cc(OC)c(OC)cc1-3 [4a, 2,3,10-Trimethoxy-9-ethyloxyformylmethylenoxy protoberberine chloride]
- pIC50 [1]: < 3.84
- TC50 (median toxic concentration) (Vero cells): 434 µM
- pIC50 [2]: < 3.84
- pIC50 [3]: < 3.84
- pIC50 [4]: 3.84
